For one data set, the system named is KB. The experiment in a line: in vitro screen against human tumor cell line KB (nasopharyngeal), GI50. Type of data set: cell-based. To be noted: for GI50: read-out: GI50 KB.
Another data set deals with A549. The experiment in a line: in vitro screen against human tumor cell line A549 (lung), GI50. Type of data set: cell-based.
Data set [1] deals with panel of cancer cell lines including A549 (lung), DU-145 (prostate), KB (nasopharyngeal), and HCT-8 (colon). The experiment in a line: cells. The note with it: Homo sapiens, read-out: range of activities (GI50) over the cell line panel.
The next data set has as its system DU145. The experiment in a line: in vitro screen against human tumor cell line DU-145 (prostate), GI50. It counts as cell-based.
Another data set deals with HCT-8. Put plainly: in vitro screen against human tumor cell line HCT-8 (colon), GI50. It counts as cell-based.
Another data set relates to rats. To be noted: rat, in vivo; cited from earlier work.

SMILES strings stand for the structures. Read-outs that look alike come from different tables or passages of the source.

Take `COc1ccc2c3c(c4cc(OC)c(OC)cc4c2c1)C[C@H]1CN(C)CN1C3` [Compound 3h, (S)-12-aza-12N-methyl-antofine]: the melting point (commonly the temperature of the solid-liquid transition) was 182 to 184 °C. The GI50 – broadly, the concentration giving 50% growth inhibition – with KB (Example 2, Table 2, 12-aza-antofines) was found to be 1.72 µM. In addition, in the data set on A549 (Example 2, Table 2, 12-aza-antofines, read-out: GI50 A549), the GI50 came out at 660 nM. Further, the GI50 in data set [1] fell in the range of 660 to 2030 nM. For the same compound, the GI50 in the data set on DU145 (Example 2, Table 2, 12-aza-antofines, read-out: GI50 DU145) turned out to be 2030 nM. Besides, the GI50 with HCT-8 (Example 2, Table 2, 12-aza-antofines, read-out: GI50 HCT-8) amounted to 1000 nM.

Regarding `COc1ccc2c3c(c4cc(OC)c(OC)cc4c2c1)C[C@H]1CCCCN1C3` [R-cryptopleurine, reference compound], in the data set on rats, the “toxicity in animal tests” value is reported as “quite toxic”. Further, in the data set on KB, the “KB GI50” value was 1.51 nM. For the same compound, the GI50 in the data set with KB amounted to 0.00151 µM; in the data set on A549 (read-out: A549 GI50), 1.38 nM; in the data set with A549 (read-out: GI50 A549), 1.38 nM; in the data set with DU145 (read-out: DU145 GI50) it was 1.59 nM; in the data set on DU145 (read-out: GI50 DU145), 1.59 nM; in the data set with HCT-8 (read-out: GI50 HCT-8), 1.09 nM. The GI50 in the data set on HCT-8 (read-out: HCT-8 GI50) was 1.09 nM.

For `COc1cc2c3c(c4cc(OC)c(OC)cc4c2cc1OC)CN1CCC[C@@H]1C3` [tylophorine], the generally non-toxic dose entry in the data set with rats was “up to 500 mg/kg”.

The values above are taken from patent US9216977B2 (The University of North Carolina at Chapel Hill, priority 2009, dated 2015).
